Source: the supplement of paper PMC10307832

Assays:
Test in all cases: relative viability (nuclei count vs DMSO), 5 days (fraction); higher = more cells survive
[1] = compound: Cc1ccc(NC(=O)c2ccc(CN3CCN(C)CC3)cc2)cc1Nc1nccc(-c2cccnc2)n1 [Imatinib] + CC1(C)CCC(c2ccc(Cl)cc2)=C(CN2CCN(c3ccc(C(=O)NS(=O)(=O)c4ccc(N[C@H](CCN5CCOCC5)CSc5ccccc5)c(S(=O)(=O)C(F)(F)F)c4)cc3)CC2)C1 [Navitoclax] (partner 0.5 µM)
Method in brief: (§1)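 Relative viability was taken as the ratio of nuclei in treated wells to nuclei in vehicle wells. Lung cancer cell lines in 1536-well plates received compounds by pin tool one day after seeding, either one drug alone or a fixed anchor-drug dose plus five library-drug doses (not always all listed) in √10 steps. Nuclei were counted on 4× images after 5 days of treatment, and values are medians of duplicate plates.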

[2] = compound: Cc1ccc(NC(=O)c2ccc(CN3CCN(C)CC3)cc2)cc1Nc1nccc(-c2cccnc2)n1 [Imatinib] + C[C@]1(O)C[C@@H](c2nc(-c3ccc4ccc(-c5ccccc5)nc4c3)c3c(N)nccn32)C1 [Linsitinib] (partner 1 µM)
Method in brief: as §1

[3] = compound: Cc1ccc(NC(=O)c2ccc(CN3CCN(C)CC3)cc2)cc1Nc1nccc(-c2cccnc2)n1 [Imatinib] + Nc1nc2[nH]cc(CCc3ccc(C(=O)N[C@@H](CCC(=O)O)C(=O)O)cc3)c2c(=O)[nH]1 [Pemetrexed] (partner 0.2 µM)
Method in brief: as §1

[4] = compound: Cc1ccc(NC(=O)c2ccc(CN3CCN(C)CC3)cc2)cc1Nc1nccc(-c2cccnc2)n1 [Imatinib] + O=C(c1cc(Cc2n[nH]c(=O)c3ccccc23)ccc1F)N1CCN(C(=O)C2CC2)CC1 [Olaparib] (partner 8 µM)
Method in brief: as §1

Row | Cell Line | relative viability ([1]; first compound 0.02 µM) | relative viability ([1]; first compound 0.06325 µM) | relative viability ([1]; first compound 0.2 µM) | relative viability ([1]; first compound 0.6325 µM) | relative viability ([1]; first compound 2 µM) | relative viability ([2]; first compound 0.02 µM) | relative viability ([2]; first compound 0.06325 µM) | relative viability ([2]; first compound 0.6325 µM) | relative viability ([2]; first compound 2 µM) | relative viability ([3]; first compound 0.02 µM) | relative viability ([3]; first compound 0.06325 µM) | relative viability ([3]; first compound 0.2 µM) | relative viability ([3]; first compound 0.6325 µM) | relative viability ([3]; first compound 2 µM) | relative viability ([4]; first compound 0.02 µM) | relative viability ([4]; first compound 0.06325 µM) | relative viability ([4]; first compound 0.2 µM) | relative viability ([4]; first compound 0.6325 µM) | relative viability ([4]; first compound 2 µM) | relative viability ([2]; first compound 0.2 µM)
1 | HCC-827 | 1.05 | 0.947 | 1.08 | 1.05 | 0.973 | 1.02 | 0.96 | 0.98 | 0.897 | 0.283 | 0.285 | 0.249 | 0.267 | 0.255 | 0.741 | 0.724 | 0.762 | 0.639 | 0.628 | 
2 | HOP-62 | 0.983 |  | 1.36 | 1.04 | 0.517 | 1.12 |  | 0.953 | 0.857 | 0.302 |  | 0.356 | 0.29 | 0.317 | 0.408 | 0.478 | 0.456 | 0.498 | 0.372 | 
3 | IA-LM | 0.909 | 0.813 | 1.05 | 0.83 | 0.754 | 0.688 | 0.652 | 1.38 | 0.593 |  |  |  |  |  | 0.917 | 0.884 | 0.996 | 0.977 | 0.734 | 0.561
4 | LC-2-ad | 0.481 | 0.361 | 0.514 | 0.707 | 0.468 | 0.838 | 0.875 | 0.825 | 0.84 | 0.265 |  | 0.298 | 0.251 | 0.27 | 0.756 |  | 0.751 | 0.761 | 0.694 | 0.896
5 | LCLC-97TM1 |  |  | 0.605 | 0.554 | 0.399 |  |  | 0.179 | 0.184 | 0.183 |  | 0.197 | 0.165 | 0.184 | 0.539 |  | 0.269 | 0.419 | 0.33 | 0.204
6 | LCLC-103H |  |  |  |  |  |  |  | 1.03 |  | 0.458 | 0.445 | 0.472 | 0.464 | 0.504 | 0.776 | 0.773 | 0.834 | 0.694 |  | 1.08
7 | LK-2 | 0.975 | 0.685 | 0.848 |  | 0.84 | 0.614 | 0.427 | 0.222 | 0.689 | 0.272 | 0.29 | 0.296 |  | 0.272 | 0.725 | 0.629 | 0.711 |  | 0.92 | 0.739
8 | LOU-NH91 | 0.76 |  | 0.654 | 0.569 | 0.613 | 0.993 | 0.964 | 0.869 | 0.87 | 0.361 | 0.385 | 0.381 | 0.405 | 0.395 | 1.04 | 0.982 |  | 0.879 | 0.894 | 0.996
9 | LU99A | 0.905 | 0.788 | 0.807 | 1.08 | 0.855 | 0.53 | 0.543 | 0.611 | 0.615 | 0.161 | 0.206 | 0.157 | 0.232 | 0.313 | 0.272 | 0.254 | 0.235 | 0.29 | 0.274 | 0.654
10 | LXF-289 | 0.98 | 0.944 | 1.08 | 0.907 | 0.924 | 1.03 | 1.05 | 0.892 | 0.935 | 0.91 |  | 0.88 | 0.893 | 0.923 | 1.1 |  | 1.35 |  | 1.13 | 1.08
11 | NCI-H358 |  |  |  |  |  | 0.726 |  | 0.669 | 0.863 | 0.167 | 0.169 | 0.189 | 0.171 | 0.178 | 0.733 | 0.699 | 0.613 | 0.549 | 0.556 | 0.851
12 | NCI-H650 |  |  |  |  |  | 1.27 | 0.86 | 1.05 | 0.861 | 0.986 |  | 0.834 | 0.951 | 0.875 | 0.432 | 0.405 | 0.392 | 0.431 | 0.383 | 0.95
13 | NCI-H661 |  |  |  |  |  | 0.553 | 0.345 | 0.362 | 0.56 | 0.915 | 1.09 | 0.93 | 0.931 | 0.936 | 0.747 | 0.94 | 0.853 | 0.773 | 0.703 | 0.611
14 | NCI-H727 | 0.324 | 0.398 | 0.4 | 0.412 | 0.417 | 0.301 | 0.249 | 0.299 | 0.347 |  |  |  |  |  | 0.644 |  | 0.696 | 0.712 | 0.664 | 0.277
15 | NCI-H1299 | 1.02 | 1.11 | 1.08 | 1.01 | 1.04 | 1.14 | 1.08 | 0.983 |  |  |  |  |  |  | 0.987 | 0.948 | 1.01 | 0.983 | 0.97 | 1.04
16 | NCI-H1563 |  |  |  |  |  | 1.15 | 1.31 | 1.25 | 1.16 | 0.861 | 0.678 | 0.787 | 0.772 | 0.631 |  |  |  |  |  | 1.22
17 | NCI-H1648 |  |  |  |  |  |  |  |  |  | 0.722 | 0.642 | 0.721 | 0.543 | 0.673 | 0.958 | 0.633 | 0.971 | 0.307 | 0.776 | 
18 | NCI-H1650 | 1.39 | 1.35 | 1.25 | 1.31 | 1.13 |  |  |  |  | 0.414 | 0.405 | 0.362 | 0.335 | 0.416 | 1 | 0.938 | 0.944 | 0.859 | 0.84 | 
19 | NCI-H1703 | 1.39 | 1.12 | 0.586 | 0.383 | 0.238 | 0.629 | 0.204 | 0.418 | 0.138 |  |  |  |  |  | 0.329 | 0.292 | 0.262 | 0.146 | 0.177 | 0.449
20 | NCI-H1734 | 0.938 |  | 1.11 | 0.758 |  |  |  |  |  | 0.402 |  | 0.425 | 0.377 | 0.388 | 0.621 |  | 0.605 | 0.648 | 0.639 | 
21 | NCI-H2170 | 0.722 | 0.655 | 0.672 | 0.643 | 0.633 |  |  |  |  | 0.343 | 0.277 | 0.267 | 0.256 | 0.274 | 0.635 | 0.585 | 0.663 | 0.69 | 0.578 | 
22 | NCI-H2342 |  |  |  |  |  |  |  |  |  | 0.688 | 0.665 | 0.834 | 0.738 |  | 0.44 | 0.404 | 0.466 | 0.473 | 0.426 | 
